Data reported in patent publication US20020103083A1, “Promoting deeper root development, reducing nitrogen fertilizer usage, imparting drought resistance, and increasing tolerance to adverse soil conditions in plants” (priority 2000, published 2002).

System: T. harzianum strain T-22
Assay: Effect of chemical seed treatments on subsequent root colonization by T-22
Format: in vivo, Trichoderma harzianum
Conditions: full rates of chemical seed treatment
Text: In nearly all cases, the best results in direct-seeded field crops are obtained with an integration of chemical seed treatments and the deep root developing agents. […] This resistance permits the use of both the biological root colonizing agent and chemical seed protectants.

Row | Compound | prevention of subsequent root colonization by T-22
1 | CN(C)C(=S)SSC(=S)N(C)C [thiram] | exceptions
2 | CC(C)(C)C(O)(CCc1ccc(Cl)cc1)Cn1cncn1 (centres unmarked) [tebuconazole] | exceptions
